Data set [1] in a line: solubility in water. In kind it is physicochemical.
The nature of data set [2]: amount of formalin in triethylene glycol stored at 50° C., by colorimetry (Experimental Example 1). The following applies: 50% aqueous triethylene glycol; for amount of formalin, After 3 Days / amount of formalin, After 6 Days / amount of formalin, Just After Preparation: 2 mg antioxidant in 10 g. How it is done:
As the example of the present invention, 2 mg of the sodium salt of phosphoric acid diester obtained in Preparation Example 2 was dissolved in 10 g of a 50% aqueous solution of triethylene glycol (supplied by Nakarai Chemicals Co., Ltd.), the solution was stored in a thermostat tank maintained at 50° C. for 3 or 6 days, and the amount of formalin was measured by colorimetry.
Triethylene glycol free of any antioxidant as Comparison Example 1, triethylene glycol in which ascorbic acid was added in the same amount as in the Example of the present invention, as Comparison Example 2, and triethylene glycol in which mixed tocopherol was incorporated in the same amount as in the example of the present invention, as Comparison Example 3, were tested in the same manner as described above.

Data set [3] is described as follows: anti-oxidizing effect against oxidation of phospholipid/ethanol mixed micell by Fe^2+.ascorbic acid (Experimental Example 3). The format is biochemical. The settings on record: 4.0 × 10^-5 M. How it is done: The anti-oxidizing effect of the sodium salt of phosphoric acid diester prepared in Preparation Example 2 against the oxidation of a phospholipid (egg lecitin)/ethanol mixed micell by Fe^2+.ascorbic acid was examined.
About 78 mg of egg lecitin was dissolved in 2 ml of ethanol, and 5 mM HEPES buffer solution (pH 7.2) was gradually added to the solution with ice cooling under the application of an ultrasonic wave (50 W) to form a suspension, until the total amount was 100 ml. Then, 200 μl of a 2.6×10^-4 M aqueous solution of the sodium salt of phosphoric acid diester was added to 1000 μl of the so-formed liquid. Then 50 μl of a 5.0×10^-5 M aqueous solution of sodium ascorbate and 50 μl of a 2.5×10^-6 M aqueous solution of ferrous sulfate were added to the mixture, and oxidation was carried out for 15 minutes in a water bath at 25° C. After the reaction, 50 μl of a 0.1% solution of hydroquinone in ethanol was immediately added to stop the reaction. […] After cooling, the absorbance at 450 to 600 nm was measured by a spectrophotometer. The increase of the absorption in the vicinity of about 530 to about 540 nm in the obtained curve was measured. The inhibition ratio was determined by comparing the obtained result with the result obtained at the blank test not using the test liquid.

Data set [4] can be described thus: smell evaluation of stored triethylene glycol samples by three experts (Experimental Example 2). Details: key: +: no smell of rancidity; -: strong smell of rancidity. The settings on record: samples of Experimental Example 1 after 6 days storage. As for the experimental part: The sample of the Example of the present invention and Comparison Examples 1, 2, and 3 in Experimental Example 1, obtained after 6 days storage, were evaluated with respect to the smell thereof.
The evaluation was made by three experts.

For data set [5] the following is noted: cited from earlier work.

Counter-ions that a name gives are not always drawn.

The values below come from patent publication US5306713A, “Highly active antioxidant of tocopheryl ascorbyl phosphate” (Shiseido Company Ltd., priority 1991, dated 1994).

For the compound `Cc1c(C)c2c(c(C)c1OP(=O)(O)OC1=C(O)[C@@H]([C@@H](O)CO)OC1=O)CCC(C)(CCCC(C)CCCC(C)CCCC(C)C)O2` (mixture of isomers) [phosphoric acid diester, L-ascorbic DL-α-tocopherol phosphate], in data set [1], the “solubility in water (in words)” value was “freely dissolved in water”.
On the same count and under the same terms, the same measure for `Cc1c(C)c2c(c(C)c1OP(=O)(O)OC1=C(O)[C@@H]([C@@H](O)CO)OC1=O)CCC(C)(CCCC(C)CCCC(C)CCCC(C)C)O2` (mixture of isomers) [potassium salt, potassium L-ascorbic DL-α-tocopherol phosphate]: “soluble in water”.
On to `Cc1c(C)c2c(c(C)c1OP(=O)(O)OC1=C(O)[C@@H]([C@@H](O)CO)OC1=O)CCC(C)(CCCC(C)CCCC(C)CCCC(C)C)O2` (mixture of isomers) [sodium salt of phosphoric acid diester, sodium L-ascorbic DL-α-tocopherol phoschate], for which, in data set [2] (50° C.), the “amount of formalin, After 3 Days” value is reported as 1.7 and the “amount of formalin, After 6 Days” value came out at 15.5. Also, the “amount of formalin, Just After Preparation” value in data set [2] was 0.1. Further, in data set [2] (50° C., 3 or 6 days), the “anti-oxidizing effect compared with ascorbic acid or tocopherol alone (in words)” value is listed as “much higher anti-oxidizing effect”. Besides, in data set [1], the “solubility in water (in words)” value was “soluble in water”. Further, in data set [3], the “inhibition of the oxidation (in words)” value was “substantially completely inhibited the oxidation”. Further, the “Inhibition Ratio” value in data set [3] (oxidation 15 minutes at 25° C., pH 7.2 HEPES, TBA absorbance about 530 to about 540 nm, 40 µM) is 99.1%. Further, the “Judgement of Smell” value in data set [4] is given as “+”.
Take `O=C1O[C@H]([C@@H](O)CO)C(O)=C1O` [ascorbic acid, reference compound]: in data set [2] (50° C.), the “amount of formalin, After 3 Days” value is recorded as 39.6 and the “amount of formalin, After 6 Days” value stood at 111.7. Besides, the “amount of formalin, Just After Preparation” value in data set [2] was found to be 0.1. In addition, the “Judgement of Smell” value in data set [4] is “-”.
Consider `Cc1c(C)c2c(c(C)c1OP(=O)(O)OC1=C(O)[C@@H]([C@@H](O)CO)OC1=O)CCC(C)(CCCC(C)CCCC(C)CCCC(C)C)O2` (stereo partly shown) [calcium salt], for which the “solubility in water (in words)” value in data set [1] is “insoluble in water”.
Turning to tocopherol, the “solubility of tocopherol in water (in words)” value in data set [5] is given as “not soluble in water”.
